Consider 16 compounds from PubChem BioAssay AID248 (DTP/NCI, 2004).

The assay concerns L1210 leukemia ip in BDF1 mice, survival T/C. Briefly: NCI In Vivo Anticancer Drug Screen. Data for tumor model L1210 Leukemia (intraperitoneal) in B6D2F1 (BDF1) mice. The settings on record: endpoint: mean survival time, higher = longer survival. The gist of the method: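 Transplanted-tumor mice were given test agent; controls received vehicle only. Survival readings from the two groups were divided (treated over control).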

The mark [1] stands for this setting: dose: 50.0 mg/kg/injection, schedule: Q01DX001 (ip), vehicle: carboxymethylcellulose (CMC).
[2] abbreviates: dose: 100.0 mg/kg/injection, schedule: Q01DX001 (ip), vehicle: carboxymethylcellulose (CMC).
Setting [3] is: dose: 200.0 mg/kg/injection, schedule: Q01DX001 (ip), vehicle: carboxymethylcellulose (CMC).
Setting [4] is: dose: 400.0 mg/kg/injection, schedule: Q01DX001 (ip), vehicle: carboxymethylcellulose (CMC).
The mark [5] stands for this setting: dose: 100.0 mg/kg/injection, schedule: Q01DX009 (ip), vehicle: saline with Tween-80.
The mark [6] stands for this setting: dose: 200.0 mg/kg/injection, schedule: Q01DX009 (ip), vehicle: saline with Tween-80.
The mark [7] stands for this setting: dose: 400.0 mg/kg/injection, schedule: Q01DX001 (ip), vehicle: saline.
Setting [8] is: dose: 400.0 mg/kg/injection, schedule: Q01DX009 (ip), vehicle: saline.
Setting [9] is: dose: 100.0 mg/kg/injection, schedule: Q01DX001 (ip), vehicle: saline.
The mark [10] stands for this setting: dose: 200.0 mg/kg/injection, schedule: Q01DX001 (ip), vehicle: saline.
Setting [11] is: dose: 100.0 mg/kg/injection, schedule: Q04DX002 (ip), vehicle: Klucel (hydroxypropylcellulose) (HPC).
Where [12] appears, read: dose: 200.0 mg/kg/injection, schedule: Q04DX002 (ip), vehicle: Klucel (hydroxypropylcellulose) (HPC).
Where [13] appears, read: dose: 400.0 mg/kg/injection, schedule: Q04DX002 (ip), vehicle: Klucel (hydroxypropylcellulose) (HPC).
The mark [14] stands for this setting: dose: 100.0 mg/kg/injection, schedule: Q04DX003 (ip), vehicle: Klucel (hydroxypropylcellulose) (HPC).

Values joined by “and” are separate entries in the source; they are usually repeats but may differ in a detail not shown here. Equal values may be shown once. Inconclusive results and toxic doses are left out.

Regarding `Clc1ccc(CSc2ncc(Br)c(N3CC3)n2)c(Cl)c1`, the T/C reads like this: (dose: 88.0 mg/kg/injection, schedule: Q01DX Z (ip), vehicle: methylcellulose (MC)) 89 % of control; (dose: 133.0 mg/kg/injection, schedule: Q01DX Z (ip), vehicle: methylcellulose (MC)) 94 % of control.
On to `O=C1C2(c3ccccc3)CC(CBr)C1(c1ccccc1)C(c1ccccc1)=C2c1ccccc1` (stereo not given), for which the T/C under setting [1] was 97 % of control, the T/C under setting [2] is 100 % of control, the T/C under setting [3] is 97 % of control and the T/C under setting [4] was 97 % of control.
Regarding `CC1C(=O)C2(C)C3(C)C(=O)C(C)(C(c4ccccc4)=C3c3ccccc3)C2(c2ccccc2)C1c1ccccc1` (stereo not given) (tested in a mixture with another compound), the T/C (dose: 50.0 mg/kg/injection, schedule: Q01DX009 (ip), vehicle: saline with Tween-80) is 98 % of control; the T/C under setting [5] is 95 % of control; the T/C under setting [6] was 95 % of control.
In the case of `COc1ccc([N+](=O)[O-])cc1NC(=O)Cc1ccccc1`, the T/C is, setting by setting: under setting [5], 107 % of control; under setting [6], 101 % of control; (dose: 400.0 mg/kg/injection, schedule: Q01DX009 (ip), vehicle: saline with Tween-80) 91 % of control.
Regarding `Clc1ccccc1CSc1ncnc2nc[nH]c12`, the T/C (dose: 16.0 mg/kg/injection, schedule: Q01DX Z (ip), vehicle: other) was 96 % of control; the T/C (dose: 31.0 mg/kg/injection, schedule: Q01DX Z (ip), vehicle: other) is 106 % of control; the T/C (dose: 40.0 mg/kg/injection, schedule: Q01DX009 (ip), vehicle: saline) was 120 % of control; the T/C (dose: 62.0 mg/kg/injection, schedule: Q01DX Z (ip), vehicle: other) is 112 % of control; the T/C (dose: 70.0 mg/kg/injection, schedule: Q01DX009 (ip), vehicle: saline) was 110 % of control; the T/C (dose: 187.0 mg/kg/injection, schedule: Q01DX Z (ip), vehicle: other) is 150 % of control. In addition, the T/C runs as follows: (dose: 265.0 mg/kg/injection, schedule: Q01DX001 (ip), vehicle: acetone) 124 % of control; (dose: 265.0 mg/kg/injection, schedule: Q01DX001 (ip), vehicle: saline) 107 % of control; (dose: 300.0 mg/kg/injection, schedule: Q01DX009 (ip), vehicle: acetone) 94 % of control; (dose: 300.0 mg/kg/injection, schedule: Q01DX009 (ip), vehicle: saline) 123 % of control; (dose: 375.0 mg/kg/injection, schedule: Q01DX Z (ip), vehicle: other) 103 % of control; under setting [7], 110 % of control. Also, the T/C by setting is: under setting [8], 115 % of control; (dose: 450.0 mg/kg/injection, schedule: Q01DX009 (ip), vehicle: acetone) 91 % of control; (dose: 500.0 mg/kg/injection, schedule: Q01DX Z (ip), vehicle: other) 86 % of control.
Turning to `CC(C)CCN`, the T/C is, setting by setting: under setting [9], 115 % of control; (dose: 100.0 mg/kg/injection, schedule: Q01DX009 (ip), vehicle: saline) 98 % of control and 104 % of control; (dose: 100.0 mg/kg/injection, schedule: Q04DX002 (ip), vehicle: saline) 102 % of control and 103 % of control; (dose: 100.0 mg/kg/injection, schedule: Q04DX003 (ip), vehicle: saline) 98 % of control; under setting [10], 112 % of control; (dose: 200.0 mg/kg/injection, schedule: Q01DX009 (ip), vehicle: saline) 107 % of control and 112 % of control. Further, the T/C is, setting by setting: (dose: 200.0 mg/kg/injection, schedule: Q04DX002 (ip), vehicle: saline) 103 % of control and 108 % of control; (dose: 200.0 mg/kg/injection, schedule: Q04DX003 (ip), vehicle: saline) 98 % of control; under setting [7], 107 % of control; under setting [8], 114 % of control and 117 % of control; (dose: 400.0 mg/kg/injection, schedule: Q04DX002 (ip), vehicle: saline) 101 % of control and 102 % of control; (dose: 400.0 mg/kg/injection, schedule: Q04DX003 (ip), vehicle: saline) 112 % of control.
Regarding `C#CC(C)(O)CC(C)C` (stereo not given), the T/C was 100 % of control under setting [9] and 100 % of control under setting [10].
Turning to `CNC(=S)N/N=C/CSC/C=N/NC(=S)NC`, the T/C reads like this: (dose: 0.2 mg/kg/injection, schedule: Q03HX024 (ip), vehicle: saline with Tween-80) 100 % of control; (dose: 0.39 mg/kg/injection, schedule: Q03HX024 (ip), vehicle: saline with Tween-80) 97 % of control; (dose: 0.78 mg/kg/injection, schedule: Q03HX024 (ip), vehicle: saline with Tween-80) 93 % of control; (dose: 1.56 mg/kg/injection, schedule: Q03HX024 (ip), vehicle: saline with Tween-80) 108 % of control; (dose: 3.13 mg/kg/injection, schedule: Q03HX024 (ip), vehicle: saline with Tween-80) 100 % of control.
For `CC1=NN(c2ccccc2)C(=O)C1N=Nc1ccc(S(N)(=O)=O)cc1` (stereo not given), the T/C is, setting by setting: under setting [2], 95 % of control; under setting [3], 93 % of control; under setting [4], 93 % of control.
For the compound `S=C(S)N1CCOCC1.[Cu+2]`, the T/C under setting [1] was 88 % of control and the T/C under setting [2] was 107 % of control.
Consider `O=C(Nc1ccc(Cl)cc1)Nc1ccc([N+](=O)[O-])cc1[N+](=O)[O-]`, for which the T/C under setting [11] was 111 % of control, the T/C under setting [12] was 108 % of control and the T/C under setting [13] was 108 % of control.
As to `CC(=O)OC(=O)c1ccc2c(c1)C(=O)c1ccccc1C2=O`, the T/C was 100 % of control (dose: 25.0 mg/kg/injection, schedule: Q01DX009 (ip), vehicle: Klucel (hydroxypropylcellulose) (HPC)); 105 % of control (dose: 50.0 mg/kg/injection, schedule: Q01DX001 (ip), vehicle: Klucel (hydroxypropylcellulose) (HPC)); 98 % of control (dose: 50.0 mg/kg/injection, schedule: Q01DX009 (ip), vehicle: Klucel (hydroxypropylcellulose) (HPC)); 111 % of control (dose: 100.0 mg/kg/injection, schedule: Q01DX001 (ip), vehicle: Klucel (hydroxypropylcellulose) (HPC)); 102 % of control (dose: 100.0 mg/kg/injection, schedule: Q01DX009 (ip), vehicle: Klucel (hydroxypropylcellulose) (HPC)); 100 % of control under setting [14]. Further, the T/C was 111 % of control (dose: 200.0 mg/kg/injection, schedule: Q01DX001 (ip), vehicle: Klucel (hydroxypropylcellulose) (HPC)); 96 % of control and 105 % of control (dose: 400.0 mg/kg/injection, schedule: Q01DX001 (ip), vehicle: Klucel (hydroxypropylcellulose) (HPC)).
Turning to `CCCCC(F)C(Br)C(=O)O` (stereo not given), the T/C is 97 % of control (dose: 100.0 mg/kg/injection, schedule: Q04DX002 (ip), vehicle: saline with Tween-80); 87 % of control (dose: 200.0 mg/kg/injection, schedule: Q04DX002 (ip), vehicle: saline with Tween-80); 93 % of control (dose: 400.0 mg/kg/injection, schedule: Q04DX002 (ip), vehicle: saline with Tween-80).
With `CCCCP(=S)(CCCC)N(CC)CC`, the T/C under setting [14] was 101 % of control; the T/C (dose: 200.0 mg/kg/injection, schedule: Q04DX003 (ip), vehicle: Klucel (hydroxypropylcellulose) (HPC)) was 104 % of control; the T/C (dose: 400.0 mg/kg/injection, schedule: Q04DX003 (ip), vehicle: Klucel (hydroxypropylcellulose) (HPC)) was 93 % of control.
With `COc1ccccc1C(=O)Nc1ccccc1SC`, the T/C runs as follows: under setting [11], 93 % of control; under setting [12], 93 % of control; under setting [13], 93 % of control.
On to `O=P(OCc1ccccc1)(N(CCO)CCO)N(CCCl)CCCl` (stereo not given), for which the T/C was 91 % of control (dose: 25.0 mg/kg/injection, schedule: Q01DX Z (ip), vehicle: saline); 100 % of control (dose: 50.0 mg/kg/injection, schedule: Q01DX Z (ip), vehicle: saline); 94 % of control (dose: 100.0 mg/kg/injection, schedule: Q01DX Z (ip), vehicle: saline); 103 % of control (dose: 200.0 mg/kg/injection, schedule: Q01DX Z (ip), vehicle: saline).
